Data taken from ChEMBL document CHEMBL3286271, “Synthesis and cytotoxic effect on cancer cell lines and macrophages of novel progesterone derivatives having an ester or a carbamate function at C-3 and C-17” (Eur J Med Chem, 2014).
Active and inactive are the calls of the source. The calls are words filed in the database; no cut-off is given here.

Assays:
[1] = Cytotoxicity against mouse J774 cells assessed as growth inhibition at 50 uM after 48 hrs by SRB method; type: cell-based; conditions: read-out: GI
PC-3 = experiment: Cytotoxicity against human PC3 cells assessed as growth inhibition at 50 uM after 48 hrs by SRB method; type: functional; conditions: PC-3, 48 h, read-out: GI
HCT-15 = experiment: (§1) Cytotoxicity against human HCT15 cells assessed as growth inhibition at 50 uM after 48 hrs by SRB method; type: functional
MCF7 = experiment: Cytotoxicity against human MCF7 cells assessed as growth inhibition at 50 uM after 48 hrs by SRB method; type: functional; conditions: for inhibition of growth at 50 µM: MCF7, 48 h, read-out: GI
[2] = as §1; type: functional; conditions: HCT-15, 48 h, read-out: GI

CC(=O)[C@@]1(OC(=O)Nc2ccc(F)cc2)CC[C@H]2[C@@H]3C=CC4=CC(=O)CC[C@]4(C)[C@H]3CC[C@@]21C
inhibition at 48 h, 50 µM [1]: 43.4% | inhibition of growth at 50 µM (PC-3): 33.4% | growth inhibition (GI) (HCT-15): inactive | inhibition of growth at 50 µM (MCF7): 20%

CC(=O)C1=CC[C@H]2[C@@H]3CC(=O)C4=C[C@@H](OC(=O)c5ccc(Cl)cc5)CC[C@]4(C)[C@H]3CC[C@]12C
inhibition at 48 h, 50 µM [1]: 38.8% | inhibition of growth at 50 µM (PC-3): 87.3% | inhibition of growth at 50 µM [2]: 88.2% | inhibition of growth at 50 µM (MCF7): 100%

CC(=O)C1=CC[C@H]2[C@@H]3CC(=O)C4=C[C@@H](O)CC[C@]4(C)[C@H]3CC[C@]12C
inhibition at 48 h, 50 µM [1]: 98.9% | inhibition of growth at 50 µM (PC-3): 70.6% | inhibition of growth at 50 µM [2]: 67.7% | inhibition of growth at 50 µM (MCF7): 63.5%

CC(=O)C1=CC[C@H]2[C@@H]3CC(=O)C4=C[C@@H](OC(=O)Nc5ccc(I)cc5)CC[C@]4(C)[C@H]3CC[C@]12C
inhibition at 48 h, 50 µM [1]: 70.7% | inhibition of growth at 50 µM (PC-3): 42.8% | inhibition of growth at 50 µM [2]: 43.2% | inhibition of growth at 50 µM (MCF7): 33.1%

CC(=O)[C@@]1(OC(=O)c2ccc(F)cc2)CC[C@H]2[C@@H]3C=CC4=CC(=O)CC[C@]4(C)[C@H]3CC[C@@]21C
inhibition at 48 h, 50 µM [1]: 100% | inhibition of growth at 50 µM (PC-3): 30.9% | inhibition of growth at 50 µM [2]: 35.6% | inhibition of growth at 50 µM (MCF7): 29.2%

CC(=O)[C@@]1(OC(=O)c2ccc(I)cc2)CC[C@H]2[C@@H]3C=CC4=CC(=O)CC[C@]4(C)[C@H]3CC[C@@]21C
inhibition at 48 h, 50 µM [1]: 74.3% | inhibition of growth at 50 µM (PC-3): 30.8% | inhibition of growth at 50 µM [2]: 27.5% | inhibition of growth at 50 µM (MCF7): 22.6%

CC(=O)[C@@]1(OC(=O)c2ccc(Cl)cc2)CC[C@H]2[C@@H]3C=CC4=CC(=O)CC[C@]4(C)[C@H]3CC[C@@]21C
inhibition at 48 h, 50 µM [1]: 73.6% | inhibition of growth at 50 µM (PC-3): 46.1% | inhibition of growth at 50 µM [2]: 39.3% | inhibition of growth at 50 µM (MCF7): 39.8%

CC(=O)[C@@]1(O)CC[C@H]2[C@@H]3C=CC4=CC(=O)CC[C@]4(C)[C@H]3CC[C@@]21C
inhibition at 48 h, 50 µM [1]: 58.5% | inhibition of growth at 50 µM (PC-3): 39.6% | inhibition of growth at 50 µM [2]: 25% | inhibition of growth at 50 µM (MCF7): 27.8%

CC(=O)C1=CC[C@H]2[C@@H]3CC(=O)C4=C[C@@H](OC(=O)c5ccccc5)CC[C@]4(C)[C@H]3CC[C@]12C
inhibition at 48 h, 50 µM [1]: 89.3% | inhibition of growth at 50 µM (PC-3): 2.9% | inhibition of growth at 50 µM [2]: 48.7% | inhibition of growth at 50 µM (MCF7): 32.7%

CC(=O)[C@@]1(OC(=O)c2ccc(Br)cc2)CC[C@H]2[C@@H]3C=CC4=CC(=O)CC[C@]4(C)[C@H]3CC[C@@]21C
inhibition at 48 h, 50 µM [1]: 57% | inhibition of growth at 50 µM (PC-3): 84.7% | inhibition of growth at 50 µM [2]: 53.9% | inhibition of growth at 50 µM (MCF7): 44.4%

CC(=O)C1=CC[C@H]2[C@@H]3CC(=O)C4=C[C@@H](OC(=O)c5ccc(F)cc5)CC[C@]4(C)[C@H]3CC[C@]12C
inhibition at 48 h, 50 µM [1]: 50% | inhibition of growth at 50 µM (PC-3): 8.3% | inhibition of growth at 50 µM [2]: 22.8% | inhibition of growth at 50 µM (MCF7): 20.8%

CC(=O)[C@@]1(OC(=O)Nc2ccccc2)CC[C@H]2[C@@H]3C=CC4=CC(=O)CC[C@]4(C)[C@H]3CC[C@@]21C
inhibition at 48 h, 50 µM [1]: 48.2% | inhibition of growth at 50 µM (PC-3): 96.6% | inhibition of growth at 50 µM [2]: 45.3% | inhibition of growth at 50 µM (MCF7): 51.3%

CC(=O)C1=CC[C@H]2[C@@H]3CC(=O)C4=C[C@@H](OC(=O)Nc5ccc(Br)cc5)CC[C@]4(C)[C@H]3CC[C@]12C
inhibition at 48 h, 50 µM [1]: 80.5% | inhibition of growth at 50 µM (PC-3): 26.9% | inhibition of growth at 50 µM [2]: 30% | inhibition of growth at 50 µM (MCF7): 14%

CC(=O)N1CCN(c2ccc(OCC3COC(Cn4ccnc4)(c4ccc(Cl)cc4Cl)O3)cc2)CC1 (configuration not stated) [KETOCONAZOLE]
inhibition at 48 h, 50 µM [1]: 54% | inhibition of growth at 50 µM (PC-3): 88.5% | inhibition of growth at 50 µM [2]: 90.6% | inhibition of growth at 50 µM (MCF7): 95.2%

CC(=O)C1=CC[C@H]2[C@@H]3CC(=O)C4=C[C@@H](OC(=O)Nc5ccc(F)cc5)CC[C@]4(C)[C@H]3CC[C@]12C
inhibition at 48 h, 50 µM [1]: 78.3% | inhibition of growth at 50 µM (PC-3): 33% | inhibition of growth at 50 µM [2]: 60.1% | inhibition of growth at 50 µM (MCF7): 34.6%

CC(=O)C1=CC[C@H]2[C@@H]3CC(=O)C4=C[C@@H](OC(=O)Nc5ccccc5)CC[C@]4(C)[C@H]3CC[C@]12C
inhibition at 48 h, 50 µM [1]: 73.8% | inhibition of growth at 50 µM (PC-3): 4.5% | inhibition of growth at 50 µM [2]: 41.4% | inhibition of growth at 50 µM (MCF7): 34.7%

CC(=O)[C@@]1(OC(=O)Nc2ccc(I)cc2)CC[C@H]2[C@@H]3C=CC4=CC(=O)CC[C@]4(C)[C@H]3CC[C@@]21C
inhibition at 48 h, 50 µM [1]: 21.7% | inhibition of growth at 50 µM (PC-3): 17.8% | growth inhibition (GI) (HCT-15): inactive | growth inhibition (GI) (MCF7): inactive

CC(=O)[C@@]1(OC(=O)c2ccccc2)CC[C@H]2[C@@H]3C=CC4=CC(=O)CC[C@]4(C)[C@H]3CC[C@@]21C
inhibition at 48 h, 50 µM [1]: 100% | inhibition of growth at 50 µM (PC-3): 42.5% | inhibition of growth at 50 µM [2]: 50.8% | inhibition of growth at 50 µM (MCF7): 26.8%

CC(=O)C1=CC[C@H]2[C@@H]3CC(=O)C4=C[C@@H](OC(=O)c5ccc(I)cc5)CC[C@]4(C)[C@H]3CC[C@]12C
inhibition at 48 h, 50 µM [1]: 61.1% | inhibition of growth at 50 µM (PC-3): 64.1% | inhibition of growth at 50 µM [2]: 67.3% | inhibition of growth at 50 µM (MCF7): 100%

CC(=O)[C@@]1(OC(=O)Nc2ccc(Cl)cc2)CC[C@H]2[C@@H]3C=CC4=CC(=O)CC[C@]4(C)[C@H]3CC[C@@]21C
inhibition at 48 h, 50 µM [1]: 36.9% | inhibition of growth at 50 µM (PC-3): 15.8% | growth inhibition (GI) (HCT-15): inactive | inhibition of growth at 50 µM (MCF7): 11.2%

CC(=O)C1=CC[C@H]2[C@@H]3CC(=O)C4=C[C@@H](OC(=O)c5ccc(Br)cc5)CC[C@]4(C)[C@H]3CC[C@]12C
inhibition at 48 h, 50 µM [1]: 60.9% | inhibition of growth at 50 µM (PC-3): 51.9% | inhibition of growth at 50 µM [2]: 55.9% | inhibition of growth at 50 µM (MCF7): 86.2%

CC(=O)[C@@]1(OC(=O)Nc2ccc(Br)cc2)CC[C@H]2[C@@H]3C=CC4=CC(=O)CC[C@]4(C)[C@H]3CC[C@@]21C
inhibition at 48 h, 50 µM [1]: 32% | inhibition of growth at 50 µM (PC-3): 26.4% | growth inhibition (GI) (HCT-15): inactive | inhibition of growth at 50 µM (MCF7): 13.1%

CC(=O)C1=CC[C@H]2[C@@H]3CC(=O)C4=C[C@@H](OC(=O)Nc5ccc(Cl)cc5)CC[C@]4(C)[C@H]3CC[C@]12C
inhibition at 48 h, 50 µM [1]: 92.4% | inhibition of growth at 50 µM (PC-3): 63.4% | inhibition of growth at 50 µM [2]: 65.3% | inhibition of growth at 50 µM (MCF7): 13.7%
